# Laboratory results taken from PMC7669869, “AdipoR1/AdipoR2 dual agonist recovers nonalcoholic steatohepatitis and related fibrosis via endoplasmic reticulum-mitochondria axis” (Nature Communications, 2020).
# Non-standard residues stand in square brackets, D forms with d. Residues, ends and D or L forms follow the SMILES beside them. Nva = CCC[C@H](N)C(=O)O
# Key:
# [1] = tested on: AdipoR1 and AdipoR2 on HepG2 and LX2 cells; assay: Cell confocal imaging, receptor binding of FITC labeled peptide (with AdipoR siRNA); parameters: species or system human; settings: 37 °C, 2 or 4 h, AdipoR1/AdipoR2 siRNA as control, in words
# Description: For in vitro receptor binding assay, 4E4 HepG2 cells or 2E4 LX2 cells were seeded on 35 mm glass bottom dish with 150 μL complete medium. Then cells were incubated with FITC labeled peptide for 4 h. The nuclei were stained with Hoechst 33342 (ThermoFisher, Scientific, USA). After washing with PBS, cells were visualized in a laser confocal microscope (Olympus FV3000, Japan). Cells with suppressed AdipoR1 and AdipoR2 expression with each specific siRNA were used as negative control.
# (§1) AdipoR1 and AdipoR2 siRNA as well as mock siRNA were chemically synthesized (GenePharma, China) and transfected into 60–70% confluent HepG2 and LX2 cells using Lipofectamine 3000 (ThermoFisher Scientific, USA). Dilution of siRNA and Lipofectamine 3000 reagents as well as the transfection of cells were performed following the manufacturer’s protocol. For HepG2 cell model, 5E5 cells were plated in 6-well plates and transfected with 5 μL of 20 μM stock siRNA. At 48 h following transfection, the cells were processed for 0.25 mM PA and/or 200 μM JT003 treated for another 24 h. BSA was used as the negative control. For LX2 cell model, 2E5 cells were plated in 6-well plates and transfected with 5 μL of 20 μM stock siRNA. At 48 h following transfection, the cells were processed for JT003 or PBS treated for another 48 h. Next, cells were harvested for either western blot or qPCR assay.
# HFD induced NASH mice [2] = assay: HFD mice: serum and liver biochemical assays (ALT, FFA, LDL-C, hepatic TG, glycogen); assay type: in vivo, mouse
# Description: Male C57BL/6J mice of 6–8 weeks of age (20–24 g) were used in these experiments including the NAFLD model and liver fibrosis model. The mice were purchased from Guangdong Medical Laboratory Animal Center and housed in standard isolator cages and maintained on a room temperature of 25 °C and a 12 h:12 h light/dark cycle. At the end of the experiments, mice were fasted 8 h prior to sacrifice. Liver tissue and/or epididymal adipose tissue were flash frozen in liquid nitrogen (with or without RNAlater (TransGen Biotech, China)) and stored at −80 °C for future use, or fixed in 10% paraformaldehyde for histological assays. Blood samples were obtained from the posterior venous plexus of the eyes of anesthetized mice, Blood was separated by centrifugation at 1000g for 15 min Serum was then stored at −80 °C. The ethical approval has been obtained from Animal Care and Use Committee of the Sun Yat-sen University. All animals were maintained in pathogen-free conditions and cared for in accordance with policies and certification of the Association for Assessment and Accreditation of Laboratory Animal Care International (AAALAC International).
# The NASH model was conducted with feeding a HFD for 16 weeks combine with a MCD diet (Methionine/Choline Deficient Diet, Medicience, China) in the last 4 weeks. […]
# The levels of ALT, AST, TC and TG in serum were determined using certain commercial assay kits (Nanjing Jiancheng Bioengineering Institute, China). Fasting adiponectin and insulin were quantified in plasma samples using corresponding commercially available Elisa kits (Cloud-Clone Crop, USA).
# The levels of TG and HYP in liver tissue were detected with certain commercial assay kit (Nanjing Jiancheng Bioengineering Institute, China). […] The cryostat-cut slices were stained with freshly prepared Oil Red O working solution for 7 min Two independent experimenters who were blinded to the treatment evaluated the staining slides and analyzed the score for steatosis, glucogen accumulation and collagen proliferation area.
# HFD induced NASH mice [3] = assay: HFD mice: insulin tolerance test (ITT); assay type: in vivo, mouse; settings: JT003 500 μg kg−1, in words
# Description: For insulin tolerance test, one week after OGTT assay, 6 h fasted mice were treated with JT003, and the baseline blood glucose level was measured. An hour later, 0.25 U kg^−1 insulin (Novolin R, Denmark) were intraperitoneal injection to mice, blood glucose level was measured at 15, 30, 45, 60 min
# [4] = tested on: AdipoR1 and AdipoR2 in LX2 cells; assay: RNA interference (AdipoR1/AdipoR2 siRNA) in LX2: PPARα, PPARγ mRNA and protein; assay type: cell-based, human; settings: JT003 48 h, in words
# Description: as §1, with “For LX2 cell model, 2E5 cells were plated in 6-well plates and transfected with 5 μL of 20 μM stock siRNA. At 48 h following transfection, the cells were processed for JT003 or PBS treated for another 48 h. Next, cells were harvested for either western blot or qPCR assay.” left out
# Liver total RNA was extracted by using Trizol reagent following the manufacture’s instruction (TransGen Biotech, China). The concentration of RNA was measured by Nanodrop 2000 (ThermoFisher Scientific, USA). cDNA was transcribed from 10ug total RNA with First Strand cDNA synthesis Super Mix (TransGen Biotech, China). […] Reference gene β-actin was used for data normalization. mRNA expression was analyzed with specific primers listed in Supplementary Table 2.
# Total protein was isolated from cells or liver samples using RIPA lysis buffer (50.0 mM Tris-HCl (pH = 8.0), 150.0 mM NaCl, 0.02% NaN3, 0.1% SDS, 1% NP-40, 0.5% deoxysodium cholate, 1 mM EDTA, […]). The protein concentration was quantified with BCA kit (Pierce, ThermoFisher Scientific, USA). […]
smiles,measurement,setting,value
CCC[C@H](NC(=O)[C@@H]1CCCN1)C(=O)N[C@@H](CC(C)C)C(=O)N[C@@H](Cc1ccc(O)cc1)C(=O)N[C@@H](Cc1ccc(O)cc1)C(=O)N[C@@H](Cc1ccccc1)C(=O)N[C@@H](C)C(N)=O [JT003] (H-P[Nva]LYYFA-NH2),"binding to AdipoRs on the cell membrane (confocal, FITC)",[1],could specifically bind to AdipoR1 and/or AdipoR2 on the cell membrane
same,decrease of the circulating lipid in the HFD group,"HFD induced NASH mice [2]; JT003 500 μg kg−1, in words",reverted
same,Hepatocytes TG and serum LDL-C contents,"HFD induced NASH mice [2]; JT003 500 μg kg−1 i.p. daily 4 weeks, in words",obviously reduced
same,ALT level,"HFD induced NASH mice [2]; JT003 500 μg kg−1 i.p. daily 4 weeks, vs HFD, in words",reduced
same,"HFD-induced insulin resistance, insulin tolerance test",HFD induced NASH mice [3],obviously ameliorated
same,effect of AdipoR1 and AdipoR2 siRNA on PPARα level induced by JT003,[4],reduced the increase of the PPARα level induced by JT003
